Tests used:
M4 knockout mice = conditions: but not the other four mAChR subtypes; cited from earlier work
[1] = tested on: catalepsy induced by the DA receptor antagonist haloperidol; conditions: cited from earlier work
Human M4 = target: T1, Human M4 (Homo sapiens, UniProt P08173); experiment: mAChR M4 cell-based functional assay (calcium flux, antagonist mode); conditions: for IC50: Human M4/Gqi5 CHO-K1 cells, decrease of acetylcholine response; for Emin (% ACh maximum at 30 μM): Human M4
T1 construct: Human or rat M4 cDNA, along with the chimeric G protein Gqi5, were transfected into Chinese hamster ovary (CHO-K1) cells; expressed in transfected cells; host or cells: CHO-K1 (Chinese hamster ovary, ATCC), stably expressing M4 and Gqi5
T1 sequence (P08173 1-479): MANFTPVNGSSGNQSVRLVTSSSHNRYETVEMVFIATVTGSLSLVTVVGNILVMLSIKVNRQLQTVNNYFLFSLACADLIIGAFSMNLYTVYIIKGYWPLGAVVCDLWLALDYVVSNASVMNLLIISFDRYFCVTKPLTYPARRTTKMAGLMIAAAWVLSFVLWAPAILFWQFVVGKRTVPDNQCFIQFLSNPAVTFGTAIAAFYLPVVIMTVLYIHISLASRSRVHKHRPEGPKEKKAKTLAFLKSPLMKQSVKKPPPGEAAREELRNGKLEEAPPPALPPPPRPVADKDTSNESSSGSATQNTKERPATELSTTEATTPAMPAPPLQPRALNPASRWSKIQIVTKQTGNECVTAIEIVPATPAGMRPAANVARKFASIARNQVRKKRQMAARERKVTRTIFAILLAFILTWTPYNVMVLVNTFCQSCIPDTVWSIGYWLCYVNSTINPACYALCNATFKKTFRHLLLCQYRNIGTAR
Description: Human or rat M4 cDNA, along with the chimeric G protein Gqi5, were transfected into Chinese hamster ovary (CHO-K1) cells purchased from the American Type Culture Collection using Lipofectamine2000. M4/Gqi5/CHO cells were grown in Ham's F-12 medium containing 10% heat-inactivated fetal bovine serum (FBS), 20 mM HEPES, 500 μg/mL G418 sulfate, and 200 μg/mL Hygromycin B.
For high throughput measurement of agonist-evoked increases in intracellular calcium, CHO-K1 cells stably expressing muscarinic receptors were plated in growth medium lacking G418 and hygromycin at 15,000 cells/20 μL/well in Greiner 384-well black-walled, tissue culture (TC)-treated, clear-bottom plates (VWR). Cells were incubated overnight at 37° C. and 5% CO2. The next day, cells were washed using an ELX 405 (BioTek) with assay buffer; the final volume was then aspirated to 20 μL. Next, 20 μL of a 2.3 μM stock of Fluo-4/acetoxymethyl ester (Invitrogen, Carlsbad, CA), prepared as a 2.3 mM stock in DMSO and mixed in a 1:1 ratio with 10% (w/v) Pluronic F-127 and diluted in assay buffer, was added to the wells and the cell plates were incubated for 50 min at 37° C. and 5% CO2. Dye was removed by washing with the ELX 405 and the final volume was aspirated to 20 μL. Compound master plates were formatted in a 10 point concentration-response curve (CRC) format (1:3 dilutions) in 100% DMSO with a starting concentration of 10 or 1 mM using a BRAVO liquid handler (Agilent). Test compound CRCs were then transferred to daughter plates (240 nL) using the Echo acoustic plate reformatter (Labcyte, Sunnyvale, CA) and then diluted into assay buffer (40 μL) to a 2× stock using a Thermo Fisher Combi (Thermo Fisher Scientific, Waltham, MA).
Calcium flux was measured using the Functional Drug Screening System (FDSS) 6000 or 7000 (Hamamatsu Corporation, Tokyo, Japan) as an increase in the fluorescent static ratio. Compounds were applied to cells (20 μL, 2×) using the automated system of the FDSS at 2 seconds into the protocol and the data were collected at 1 Hz. At 143 s, 10 μL of an EC20 concentration of the muscarinic receptor agonist acetylcholine was added (5×), followed by the addition of 12 μL of an […] concentration of acetylcholine at the 268 s time point (5×). Agonist activity was analyzed as a concentration-dependent increase in calcium mobilization upon compound addition. Positive allosteric modulator activity was analyzed as a concentration-dependent increase in the EC20 acetylcholine response. Antagonist activity was analyzed as a concentration-dependent decrease in the EC80 acetylcholine response; for the purposes of the tables herein, an IC50 (inhibitory concentration 50) was calculated as a concentration-dependent decrease of the response elicited by an […] concentration of acetylcholine. Concentration-response curves were generated using a four-parameter logistical equation in XLFit curve fitting software (IDBS, Bridgewater, NJ) for Excel (Microsoft, Redmond, WA) or Prism (GraphPad Software, Inc., San Diego, CA) or the Dotmatics software platform (Dotmatics, Bishop's Stortford, UK).
Compounds were synthesized as described above. Activity (IC50 and Emin) was determined in the mAChR M4 cell-based functional assay as described above and the data are shown in Table 1.

Row | IC50 (Human M4) [nM] | Emin (% ACh maximum at 30 μM) (Human M4) [%] | Compound | locomotor-activating effects (M4 knockout mice) | reduction of haloperidol-induced catalepsy ([1]; M4 KO mice) | reversal of haloperidol-induced catalepsy ([1]; WT mice)
1 |  |  | CN1[C@@H]2C[C@@H](OC(=O)[C@H](CO)c3ccccc3)C[C@H]1[C@@H]1O[C@@H]12 [scopolamine] | dramatically reduced | ineffective | completely reversed
2 | 28.8 | 3 | [2H]C([2H])(C1CCOCC1)N1C[C@H]2C[C@H](Nc3ccc(-c4ccc(=O)n(CC5CC5)c4)nn3)C[C@H]2C1 [A14, 1-(cyclopropylmethyl)-5-(6-(((3aR,5s,6aS)-2-((tetrahydro-2H-pyran-4-yl)methyl-d2)octahydrocyclopenta[c]pyrrol-5-yl)amino)pyridazin-3-yl)pyridin-2(1H)-one] |  |  | 
3 | 136 | 8 | Cc1cc(-c2ccc(N[C@H]3C[C@@H]4CN(CC5CCOCC5)C[C@@H]4C3)nn2)c(=O)[nH]n1 [A8, 6′-methyl-6-(((3aR,5s,6aS)-2-((tetrahydro-2H-pyran-4-yl)methyl)octahydrocyclopenta[c]pyrrol-5-yl)amino)-[3,4′-bipyridazin]-3′(2′H)-one] |  |  | 

Source: patent US20240010640A1, “ANTAGONISTS OF THE MUSCARINIC ACETYLCHOLINE RECEPTOR M4” (Vanderbilt University, priority 2020, published 2024)
